From US10730866B2, “Indole derivatives and use thereof” (Purdue Pharma L.P., priority 2014, dated 2020)

These molecules were tested against human Nav1.7 (Homo sapiens (Human), UniProt Q15858) (assay: FLIPR or FLIPR TETRA sodium dye assay for sodium channel blocking activity). Settings: recombinant HEK293 cells expressing human Nav1.7.
Assay type: cell-based
Description: In vitro assays were performed in a recombinant cell line expressing cDNA encoding the alpha subunit (Nav1.7, SCN9a, PN1, NE) of human Nav1.7 (Accession No. NM_002977). The cell line was provided by investigators at Yale University (Cummins et al, J. Neurosci. 18(23): 9607-9619 (1998)). For dominant selection of the Nav1.7-expressing clones, the expression plasmid co-expressed the neomycin resistance gene. The cell line was constructed in the human embryonic kidney cell line, HEK293, under the influence of the CMV […] promoter, and stable clones were selected using limiting dilution cloning and antibiotic selection using the neomycin analogue, G418. Recombinant beta and gamma subunits were not introduced into this cell line. Additional cell lines expressing recombinant Nav1.7 cloned from other species can also be used, alone or in combination with various beta subunits, gamma subunits or chaperones.
Unless otherwise noted, cell culture reagents were purchased from Mediatech of Herndon, Va. The recombinant Nav1.7/HEK293 cells were routinely cultured in growth medium consisting of Dulbecco's […] essential medium containing 10% fetal bovine serum (FBS, Hyclone, Thermo Fisher Scientific, Logan, Utah), 100 U/mL penicillin, 100 μg/mL streptomycin, 2-4 mM L-glutamine, and […] G418. For natural, non-recombinant cell lines, the selective antibiotic was omitted, and additional media formulations can be applied as needed.
The final buffer consisted of 20 mM Hepes, pH 7.3, 1.261 mM CaCl2, 0.493 mM MgCl2, 0.407 mM Mg(SO)4, 5.33 mM KCl, 0.441 mM KH2PO4, 137 mM NaCl, 0.336 mM Na2HPO4 and […] D-glucose (Hanks et al., Proc. Soc. Exp. Biol. Med. 71:196 (1949)), and the simple formulation was typically the basic buffer throughout the assay (i.e., all wash and addition steps).
The fluorescence indicator used in the primary fluorescence assay was the cell permeant version of CoroNa™ Green (Invitrogen, Molecular Probes, Eugene, Oreg.), a dye that emits light in the fluorescence range (Harootunian et al., J. Biol. Chem. 264(32):19458-19467 (1989)). The intensity of this emission, but not the wavelength range, is increased when the dye is exposed to Na^+ ions, which it can bind with partial selectivity. Cells expressing Nav1.7 or other sodium channels were loaded with the CoroNa™ Green dye immediately in advance of the fluorescence assay, and then, after agonist stimulation, the mobilization of Na^+ ions was detected as the Na^+ ions flowed from the extracellular fluid into the cytoplasm through the activated sodium channel pores. The dye was stored in the dark as a lyophilized powder, and then an aliquot was dissolved immediately before the cell loading procedure, according to the instructions of the manufacturer, to a stock concentration of 10 mM in DMSO. It was then diluted in the assay buffer to a 4× concentrated working solution, so that the final concentration of dye in the cell loading buffer was 5 μM.
In the fluorescence assays, two agonists were used in combination, namely 1) veratridine; and 2) the venom from the yellow scorpion, Leiurus quinquestriatus hebraeus. Veratridine is an alkaloid small molecule that facilitates the capture of channel openings by inhibiting inactivation, and the scorpion venom is a natural preparation that includes peptide toxins selective for different subsets of voltage-gated sodium channels. These scorpion toxins inhibit the fast inactivation of their cognate target channels. Stock solutions of the agonists were prepared to 40 mM in DMSO (veratridine) and 1 mg/mL in dH2O (scorpion venom), and then diluted to make a 4× or 2× stock (depending on the particular assay) in assay buffer, the final concentration being 100 μM (veratridine) and 10 μg/mL (scorpion venom). Both of the agonists were purchased from Sigma Aldrich, St. Louis, Mo.
Test compounds were dissolved in DMSO to yield 10 mM stock solutions. […]

Chain of human Nav1.7 (Q15858 other isoform, or with tags, fused parts or gaps): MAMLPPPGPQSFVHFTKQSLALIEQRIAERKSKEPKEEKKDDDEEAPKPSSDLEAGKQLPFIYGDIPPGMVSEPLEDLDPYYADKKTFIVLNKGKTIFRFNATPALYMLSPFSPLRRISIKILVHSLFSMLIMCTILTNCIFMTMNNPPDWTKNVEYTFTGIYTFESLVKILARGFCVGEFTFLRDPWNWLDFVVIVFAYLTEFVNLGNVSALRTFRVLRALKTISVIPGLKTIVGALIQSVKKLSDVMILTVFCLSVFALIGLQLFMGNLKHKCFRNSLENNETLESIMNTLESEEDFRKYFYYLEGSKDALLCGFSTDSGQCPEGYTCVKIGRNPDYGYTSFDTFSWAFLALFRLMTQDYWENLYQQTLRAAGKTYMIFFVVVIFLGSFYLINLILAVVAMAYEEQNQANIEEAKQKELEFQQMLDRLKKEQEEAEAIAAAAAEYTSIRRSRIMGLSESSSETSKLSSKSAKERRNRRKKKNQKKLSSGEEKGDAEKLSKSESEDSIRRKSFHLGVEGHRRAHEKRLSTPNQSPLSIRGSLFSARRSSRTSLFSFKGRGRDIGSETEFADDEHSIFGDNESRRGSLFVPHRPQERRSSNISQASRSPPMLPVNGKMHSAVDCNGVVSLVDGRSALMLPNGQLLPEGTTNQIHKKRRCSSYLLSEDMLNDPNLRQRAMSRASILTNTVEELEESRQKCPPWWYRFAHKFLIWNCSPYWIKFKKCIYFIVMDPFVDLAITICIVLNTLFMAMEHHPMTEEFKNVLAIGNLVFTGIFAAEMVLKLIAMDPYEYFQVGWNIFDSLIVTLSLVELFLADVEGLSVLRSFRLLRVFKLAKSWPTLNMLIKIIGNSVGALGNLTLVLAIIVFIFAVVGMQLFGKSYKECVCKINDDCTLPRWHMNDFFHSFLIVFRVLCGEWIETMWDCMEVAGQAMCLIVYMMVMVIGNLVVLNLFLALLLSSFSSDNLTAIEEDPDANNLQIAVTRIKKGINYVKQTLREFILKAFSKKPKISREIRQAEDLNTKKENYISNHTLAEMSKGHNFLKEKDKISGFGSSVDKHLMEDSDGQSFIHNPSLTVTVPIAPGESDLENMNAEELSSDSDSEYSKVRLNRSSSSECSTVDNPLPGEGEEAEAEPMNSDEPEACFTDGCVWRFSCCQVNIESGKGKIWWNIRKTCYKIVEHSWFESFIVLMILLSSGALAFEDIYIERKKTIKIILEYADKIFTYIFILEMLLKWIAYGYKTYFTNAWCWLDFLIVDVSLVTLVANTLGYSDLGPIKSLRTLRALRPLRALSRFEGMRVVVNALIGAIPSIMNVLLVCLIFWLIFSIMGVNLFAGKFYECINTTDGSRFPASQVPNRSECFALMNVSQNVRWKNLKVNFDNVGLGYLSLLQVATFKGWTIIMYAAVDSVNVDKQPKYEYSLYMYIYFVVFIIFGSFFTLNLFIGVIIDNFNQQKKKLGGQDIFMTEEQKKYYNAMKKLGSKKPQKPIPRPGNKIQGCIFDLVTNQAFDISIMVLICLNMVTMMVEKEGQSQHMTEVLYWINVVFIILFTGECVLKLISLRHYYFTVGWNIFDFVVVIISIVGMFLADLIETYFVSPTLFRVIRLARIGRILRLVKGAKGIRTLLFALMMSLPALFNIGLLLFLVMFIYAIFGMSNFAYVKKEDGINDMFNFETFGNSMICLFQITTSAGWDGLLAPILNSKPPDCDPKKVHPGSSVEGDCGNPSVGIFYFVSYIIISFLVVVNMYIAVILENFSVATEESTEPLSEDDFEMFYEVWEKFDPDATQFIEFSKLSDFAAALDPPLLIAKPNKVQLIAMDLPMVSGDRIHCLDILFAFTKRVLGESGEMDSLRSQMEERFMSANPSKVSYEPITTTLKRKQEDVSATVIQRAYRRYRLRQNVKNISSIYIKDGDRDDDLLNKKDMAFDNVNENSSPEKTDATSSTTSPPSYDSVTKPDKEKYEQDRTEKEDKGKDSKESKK

Row | Compound | IC50
1 | O=C(Nc1ccc(C(F)(F)F)cc1)c1cccc(-c2ccc3[nH]ncc3c2)n1 [Compound 77, 6-(1H-indazol-5-yl)-N-(4-(trifluoromethyl)phenyl)picolinamide] | 2.7 ± 0.524 µM
2 | NC(=O)c1cccc(-c2ccc3c(c2)c(CN[C@H]2CCNC2=O)cn3CC2CCCCC2)n1 [Compound 145, (S)-6-(1-(cyclohexylmethyl)-3-(((2-oxopyrrolidin-3-yl)amino)methyl)-1H-indol-5-yl)picolinamide] | 10 to 20 µM
3 | O=C(Nc1ccc(C(F)(F)F)cc1)c1cccc(-c2ccc3[nH]cc(C(=O)O)c3c2)n1 [Compound 139, 5-(6-((4-(trifluoromethyl)phenyl)carbamoyl)pyridin-2-yl)-1H-indole-3-carboxylic acid] | > 20 µM
4 | NC(=O)c1cccc(-c2ccc3c(ccn3CCN3CCOCC3)c2)n1 [Compound 65, 6-(1-(2-morpholinoethyl)-1H-indol-5-yl)picolinamide] | > 20 µM
5 | O=C(Nc1ccc(C(F)(F)F)cc1)c1cccc(-c2ccc3occc3c2)n1 [Compound 81, 6-(benzofuran-5-yl)-N-(4-(trifluoromethyl)phenyl)picolinamide] | 0.782 ± 0.044 µM
6 | C[C@H](Nc1cc(C(=O)Nc2ccc(C(F)(F)F)cc2)nc(-c2ccc3occc3c2)n1)C(N)=O [Compound 79, (S)-6-((1-amino-1-oxopropan-2-yl)amino)-2-(benzofuran-5-yl)-N-(4-(trifluoromethyl)phenyl)pyrimidine-4-carboxamide] | > 20 µM
7 | OC[C@@H](O)c1cccc(-c2ccc3c(c2)ncn3Cc2ccc(C(F)(F)F)cc2)n1 [Compound 110, (S)-1-(6-(1-(4-(trifluoromethyl)benzyl)-1H-benzo[d]imidazol-5-yl)pyridin-2-yl)ethane-1,2-diol] | 3.44 ± 0.712 µM
8 | CC(C)Cn1ccc2cc(-c3cccc([C@H](O)[C@@H](O)C(N)=O)n3)ccc21 [Compound 153, (2R,3S)-2,3-dihydroxy-3-(6-(1-isobutyl-1H-indol-5-yl)pyridin-2-yl)propanamide] | 2.62 ± 0.071 µM
9 | C[C@H](Nc1cc(C(N)=O)nc(-c2ccc3[nH]ccc3c2)n1)C(N)=O [Compound 35, (S)-6-((1-amino-1-oxopropan-2-yl)amino)-2-(1H-indol-5-yl)pyrimidine-4-carboxamide] | > 20 µM
10 | NC(=O)[C@H](O)[C@@H](O)c1cccc(-c2ccc3c(ccn3Cc3ccc(C(F)(F)F)cc3)c2)n1 [Compound 151, (2R,3S)-2,3-dihydroxy-3-(6-(1-(4-(trifluoromethyl)benzyl)-1H-indol-5-yl)pyridin-2-yl)propanamide] | 0.773 ± 0.09 µM
11 | CC1CN(C(=O)c2cccc(-c3ccc4[nH]ccc4c3)n2)CC(C)O1 (centres unmarked) [Compound 86, (6-(1H-indol-5-yl)pyridin-2-yl)(2,6-dimethylmorpholino)methanone] | > 20 µM
12 | NC(=O)[C@H](O)[C@@H](O)c1cccc(-c2ccc3c(ccn3CC3CCCCC3)c2)n1 [Compound 152, (2R,3S)-3-(6-(1-(cyclohexylmethyl)-1H-indol-5-yl)pyridin-2-yl)-2,3-dihydroxypropanamide] | 0.402 ± 0.032 µM
13 | Cc1noc(C)c1Cn1ccc2cc(-c3cccc(C(N)=O)n3)ccc21 [Compound 66, 6-(1-((3,5-dimethylisoxazol-4-yl)methyl)-1H-indol-5-yl)picolinamide] | 5.55 ± 0.376 µM
14 | O=C(NCC1CCCCC1)c1cccc(-c2ccc3[nH]ccc3c2)n1 [Compound 83, N-(cyclohexylmethyl)-6-(1H-indol-5-yl)picolinamide] | 0.18 ± 0.031 µM
15 | NC(=O)c1cccc(-c2ccc3[nH]ccc3c2)n1 [Compound 29, 6-(1H-indol-5-yl)picolinamide] | > 20 µM
16 | Cn1ccc2cc(-c3cccc(C(=O)Nc4ccc(C(F)(F)F)cc4)n3)ccc21 [Compound 75, 6-(1-methyl-1H-indol-5-yl)-N-(4-(trifluoromethyl)phenyl)picolinamide] | 3.03 ± 0.837 µM

Row | Compound | IC50
17 | NC(=O)c1cccc(-c2ccc3c(ccn3CC3CCCCC3)c2)n1 [Compound 58, 6-(1-(cyclohexylmethyl)-1H-indol-5-yl)picolinamide] | 0.237 ± 0.062 µM
18 | NC(=O)c1csc(-c2ccc3c(ccn3Cc3ccc(C(F)(F)F)cc3)c2)n1 [Compound 156, 2-(1-(4-(trifluoromethyl)benzyl)-1H-indol-5-yl)thiazole-4-carboxamide] | 0.173 ± 0.018 µM
19 | OC[C@@H](O)c1cccc(-c2ccc3nn(Cc4ccc(C(F)(F)F)cc4)cc3c2)n1 [Compound 108, (S)-1-(6-(2-(4-(trifluoromethyl)benzyl)-2H-indazol-5-yl)pyridin-2-yl)ethane-1,2-diol] | 4.68 ± 0.412 µM
20 | O=C(Nc1nnn[nH]1)c1cccc(-c2ccc3[nH]ccc3c2)n1 [Compound 87, 6-(1H-indol-5-yl)-N-(1H-tetrazol-5-yl)picolinamide] | > 20 µM
21 | CCN(CC)CCn1cc(-c2ccc(F)cc2)c2ccc(-c3cccc(C(N)=O)n3)cc21 [Compound 131, 6-(1-(2-(diethylamino)ethyl)-3-(4-fluorophenyl)-1H-indol-6-yl)picolinamide] | > 20 µM
22 | C[C@H](Nc1cc(C(N)=O)nc(-c2ccc3c(ccn3Cc3ccc(C(F)(F)F)cc3)c2)n1)C(N)=O [Compound 112, (S)-6-((1-amino-1-oxopropan-2-yl)amino)-2-(1-(4-(trifluoromethyl)benzyl)-1H-indol-5-yl)pyrimidine-4-carboxamide] | 4.12 ± 0.525 µM
23 | C[C@H](Nc1cc(C(=O)Nc2ccc(C(F)(F)F)cc2)nc(-c2ccc3[nH]ccc3c2)n1)C(N)=O [Compound 80, (S)-6-((1-amino-1-oxopropan-2-yl)amino)-2-(1H-indol-5-yl)-N-(4-(trifluoromethyl)phenyl)pyrimidine-4-carboxamide] | > 20 µM
24 | NC(=O)c1cc(N[C@H]2CCNC2=O)nc(-c2ccc3c(c2)ncn3-c2ccc(C(F)(F)F)cc2)n1 [Compound 45, (S)-6-((2-oxopyrrolidin-3-yl)amino)-2-(1-(4-(trifluoromethyl)phenyl)-1H-benzo[d]imidazol-5-yl)pyrimidine-4-carboxamide] | 7.21 ± 0.562 µM
25 | NC(=O)c1cccc(-c2ccc3c(ccn3Cc3ccncc3)c2)n1 [Compound 64, 6-(1-(pyridin-4-ylmethyl)-1H-indol-5-yl)picolinamide] | > 20 µM
26 | CC(C)Cn1ccc2cc(-c3cc([C@@H](O)CO)cc(C(N)=O)n3)ccc21 [Compound 125, (R)-4-(1,2-dihydroxyethyl)-6-(1-isobutyl-1H-indol-5-yl)picolinamide] | > 20 µM
27 | CC(C)Cn1ccc2cc(-c3cccc(C(N)=O)n3)ccc21 [Compound 67, 6-(1-isobutyl-1H-indol-5-yl)picolinamide] | 0.308 ± 0.078 µM
28 | O=C(NC1CCCCC1)c1cccc(-c2ccc3[nH]ccc3c2)n1 [Compound 76, N-cyclohexyl-6-(1H-indol-5-yl)picolinamide] | 0.167 ± 0.02 µM
29 | OC[C@@H](O)c1ccnc(-c2ccc3ncn(-c4ccc(C(F)(F)F)cc4)c3c2)n1 [Compound 51, (S)-1-(2-(1-(4-(trifluoromethyl)phenyl)-1H-benzo[d]imidazol-6-yl)pyrimidin-4-yl)ethane-1,2-diol] | 3.51 ± 0.733 µM
30 | NC(=O)c1cc([C@H](O)CO)cc(-c2ccc3c(ccn3Cc3ccc(C(F)(F)F)cc3)c2)n1 [Compound 121, (S)-4-(1,2-dihydroxyethyl)-6-(1-(4-(trifluoromethyl)benzyl)-1H-indol-5-yl)picolinamide] | 2.37 ± 0.364 µM
31 | O=C(c1cccc(-c2ccc3[nH]ccc3c2)n1)N1CCCC1 [Compound 84, (6-(1H-indol-5-yl)pyridin-2-yl)(pyrrolidin-1-yl)methanone] | > 20 µM
32 | NC(=O)c1cc(N[C@H]2CCNC2=O)nc(-c2ccc3[nH]ccc3c2)n1 [Compound 36, (S)-2-(1H-indol-5-yl)-6-((2-oxopyrrolidin-3-yl)amino)pyrimidine-4-carboxamide] | > 20 µM
